Assay results published in patent US20250079000A1, “METHODS AND MARKERS FOR DIAGNOSIS OF PARKINSON'S DISEASE” (Berg LLC, priority 2021, published 2025).

Experiments:
[1] = Stability of NAP spiked in human plasma (short-term, long-term, freeze-thaw, re-injection); type: in vitro ADME
Description: (§1) Detection and Quantitation of NAP using LC-MS/MS. To quantify NAP in human K2-EDTA plasma, the quantification method using LC-MS/MS was developed. Due to low circulating levels of NAP, the sensitivity of quantification was improved using derivatization of isobutyl chloroformate in the sample preparation. The validation performance of the NAP assay is summarized in Table 8-15, including linearity, precision, matrix effect, system suitability, short-term stability, long-term stability, and reproducibility in the autosampler. […] The results of validation assessed by QCs met acceptance criteria (Table 9-15).

[2] = Short-term and long-term stability of NAP spiked in 2.5% BSA standard solution; type: physicochemical; conditions: for Bias %, long-term stability: LTS (88 days, −80 C.); for Bias %, short-term stability: STS (24 hrs, 5 C.)
Description: as §1

[3] = NCAM short-term stability in plasma QC samples; type: in vitro ADME, human; conditions: HQC, MQC, LQC; 4° C. and 24° C.; 2, 4 and 24 hours; acceptance criteria −25% to 25%
Protocol: In the short-term stability test, three levels of QC samples were thawed from the −80° C. freezer and incubated at 4° C. or RT (18-24° C.) for 2, 4 or 24 h. The samples were then assayed and compared with samples freshly thawed from the −80° C. freezer and assayed along with the samples incubated at different conditions on the day of the assay.
Precision analyses were performed at high, medium and low concentrations (HQC, MQC, and LQC, respectively). For each concentration, twelve experiments were performed. […] Accuracy analyses were performed at two concentrations of NCAM: 10,000 pg/mL and 2,000 pg/mL. Five experiments were performed at each concentration. Recovery percentages for all experiments at both concentrations (FIG. 28C) were within the acceptance criteria of greater than or equal to 80% and less than or equal to 120%. Parallelism analyses were performed using six individual plasma samples at four dilutions. Recovery percentages (FIG. 28D) were within the acceptance criteria of greater than or equal to 75% and less than or equal to 125% for all samples tested at each of the four dilutions. Short-term stability analyses were performed at two temperatures: 4° C. and 24° C. For each temperature, high, medium and low concentration samples (HQC, MQC, and LQC, respectively) were maintained at 2 hours, 4 hours, and 24 hours.

[4] = HQC, expected value 54.2 ng/mL, acceptable range 27.8-80.7
[5] = LQC, expected value 3.2 ng/mL, acceptable range 2.33-4.03

Mean concentration, freeze-thaw stability (4x) [1, 4] [µg/mL] | Mean concentration, long-term stability (84 days, −80° C.) [1, 4] [µg/mL] | Mean concentration, re-injection stability in autosampler (8 days) [1, 4] [µg/mL] | Mean concentration, short-term stability (24 h, RT) [1, 4] [µg/mL] | Mean concentration, freeze-thaw stability (4x) [1, 5] [µg/mL] | Mean concentration, long-term stability (84 days, −80° C.) [1, 5] [µg/mL] | Mean concentration, re-injection stability in autosampler (8 days) [1, 5] [µg/mL] | Mean concentration, short-term stability (24 h, RT) [1, 5] [µg/mL] | Bias %, long-term stability ([2]; L1, 1.0 ng/mL) [%] | Bias %, long-term stability ([2]; L8, 85.0 ng/mL) [%] | Bias %, short-term stability ([2]; L1, 1.0 ng/mL) [%] | Bias %, short-term stability ([2]; substock, 2000 ng/mL) [%] | Compound | Short-term stability of plasma samples [3]
0.0424 | 0.0634 | 0.0465 | 0.041 | 0.0031 | 0.0032 | 0.0032 | 0.0031 | 10.6 | −8.1 | −3.6 | −6.7 | CC(=O)NCCCCN [NAP, N-acetyl putrescine] | 
 |  |  |  |  |  |  |  |  |  |  |  | P13591 (NCAM): Neural Cell Adhesion Molecule 1, cell adhesion protein, Uniprot P13591 | within acceptance criteria
